Data on 18 molecules can be found in ChEMBL document CHEMBL5036363, “Discovery and Lead Optimization of Benzene-1,4-disulfonamides as Oxidative Phosphorylation Inhibitors” (J Med Chem, 2022).

Holding throughout (assay type): functional, cell-based
The subject of assay [1] is MIA PaCa-2. Description: Cytotoxicity against human MIA PaCa-2 cells assessed as inhibition of cell growth incubated for 7 days in glucose-containing medium by MTT assay. The settings on record: MIA PaCa-2, 168 h. (Tetrazolium dyes change colour on reduction, which living cells bring about.)
Assay [2] relates to MIA PaCa-2. Description: Cytotoxicity against human MIA PaCa-2 cells assessed as inhibition of cell growth incubated for 3 days in glucose-containing medium by MTT assay. The settings on record: MIA PaCa-2, 72 h.
The subject of assay [3] is MIA PaCa-2. Description: Cytotoxicity against human MIA PaCa-2 cells assessed as inhibition of cell growth incubated for 3 days in galactose-containing medium by MTT assay. The settings on record: MIA PaCa-2, 72 h.
Another assay deals with BXPC-3. Description: Cytotoxicity against human BXPC-3 cells assessed as inhibition of cell growth incubated for 7 days in glucose-containing medium by MTT assay. The settings on record: BXPC-3, 168 h.

Molecules are shown by their SMILES.

As to `CCN(CC)S(=O)(=O)c1ccc(S(=O)(=O)N2CCC[C@@H](C(=O)N3CCN(c4nnc(C(C)C)o4)CC3)C2)cc1`, the IC50 (commonly the concentration that gives 50% inhibition) in the assay with MIA PaCa-2 [1] was 1.8 µM; in the assay on MIA PaCa-2 [2], 1 µM; with MIA PaCa-2 [3], > 10 µM.

In the case of `CCOC(=O)[C@@H]1CCCN(S(=O)(=O)c2ccc(S(=O)(=O)N3CCCCC3)cc2)C1`, the IC50 in the assay on MIA PaCa-2 [1] is 2.9 µM; in the assay with BXPC-3, 3.3 µM; in the assay with MIA PaCa-2 [2], 1 µM; with MIA PaCa-2 [3], > 10 µM.

Regarding `CCN(CC)S(=O)(=O)c1ccc(S(=O)(=O)N2CCC[C@@H](C(=O)NC3CN(C(=O)NC(C)(C)C)C3)C2)cc1`, the IC50 in the assay with MIA PaCa-2 [1] was 3.4 µM; in the assay with BXPC-3, 10.1 µM; in the assay with MIA PaCa-2 [2], 1.4 µM; in the assay with MIA PaCa-2 [3], > 10 µM.

For the molecule `CC(C)c1noc(N2CCN(C(=O)[C@@H]3CCCN(S(=O)(=O)c4ccc(S(=O)(=O)NC5CCC5)cc4)C3)CC2)n1`, the IC50 is 0.6 µM with MIA PaCa-2 [1], 3.3 µM in the assay with BXPC-3, 0.2 µM with MIA PaCa-2 [2] and > 10 µM in the assay on MIA PaCa-2 [3].

Turning to `CCN(CC)S(=O)(=O)c1ccc(S(=O)(=O)N2CCC[C@@H](C(=O)N(C)C(C)C)C2)cc1`, the IC50 in the assay on MIA PaCa-2 [1] was 6.2 µM; in the assay on BXPC-3 it was 7.7 µM; in the assay with MIA PaCa-2 [2], 1.4 µM; in the assay on MIA PaCa-2 [3] it was > 10 µM.

Take `CCOC(=O)[C@@H]1CCCN(S(=O)(=O)c2ccc(S(=O)(=O)N(C)C)cc2)C1`: the IC50 in the assay on MIA PaCa-2 [1] is 0.9 µM; in the assay with BXPC-3, 1 µM; with MIA PaCa-2 [2] it was 0.3 µM; in the assay on MIA PaCa-2 [3], > 10 µM.

Consider `CCOC(=O)[C@@H]1CCCN(S(=O)(=O)c2ccc(C(=O)N(CC)CC)cc2)C1`, for which the IC50 with MIA PaCa-2 [1] was 0.8 µM; with BXPC-3, 0.64 µM; in the assay on MIA PaCa-2 [2], 0.1 µM; with MIA PaCa-2 [3], > 10 µM.

For the molecule `CCN(CC)S(=O)(=O)c1ccc(S(=O)(=O)N2CCC[C@@H](C(=O)NC3CCN(C(=O)OC(C)(C)C)CC3)C2)cc1`, the 50% inhibitory concentration (IC50) in the assay on MIA PaCa-2 [1] worked out at 0.1 µM; in the assay with BXPC-3, 0.3 µM.

Consider `CCOC(=O)[C@H]1CCN(S(=O)(=O)c2ccc(S(=O)(=O)N(CC)CC)cc2)C1`, for which the IC50 was 29.2 µM in the assay on MIA PaCa-2 [1], 29.3 µM in the assay with BXPC-3, > 10 µM in the assay on MIA PaCa-2 [2] and > 10 µM with MIA PaCa-2 [3].

For `CCOC(=O)[C@@H]1CCN(S(=O)(=O)c2ccc(S(=O)(=O)N(CC)CC)cc2)C1`, the IC50 with MIA PaCa-2 [1] was 8.6 µM; in the assay on BXPC-3, 10 µM; in the assay on MIA PaCa-2 [2], 1.5 µM; in the assay with MIA PaCa-2 [3] it was > 10 µM.

Consider `CCN(CC)S(=O)(=O)c1ccc(S(=O)(=O)N2CCC[C@@H](C(=O)N3CCN(c4nc(C)no4)CC3)C2)cc1`, for which the IC50 in the assay on MIA PaCa-2 [1] is 0.25 µM; in the assay with MIA PaCa-2 [2], 0.2 µM; with MIA PaCa-2 [3], > 10 µM.

On to `CCN(CC)S(=O)(=O)c1ccc(S(=O)(=O)N2CCC[C@@H](C(=O)NC3CN(S(C)(=O)=O)C3)C2)cc1`, for which the IC50 came out at 2.5 µM with MIA PaCa-2 [1] and 7.4 µM in the assay on BXPC-3.

In the case of `CCOC(=O)[C@@H]1CCCN(S(=O)(=O)c2ccc(S(=O)(=O)N(C)Cc3ccccc3)cc2)C1`, the IC50 in the assay on MIA PaCa-2 [1] and in the assay on BXPC-3 was > 30 µM in each case.

For `CCN(CC)S(=O)(=O)c1ccc(S(=O)(=O)N2CCC[C@@H](C(=O)N3CCN(c4nc(C(F)(F)F)no4)CC3)C2)cc1`, the figures for the half-maximal inhibitory concentration (IC50) in the assay with MIA PaCa-2 [1], in the assay on MIA PaCa-2 [2] and in the assay on MIA PaCa-2 [3] were 0.6 µM, 0.06 µM and > 10 µM, respectively.

Turning to `CCOC(=O)[C@@H]1CCCN(S(=O)(=O)c2ccc(S(=O)(=O)N3CCNCC3)cc2)C1`, the IC50 in the assay on MIA PaCa-2 [1] and in the assay on BXPC-3 was > 30 µM each time.

Take `CCN(CC)S(=O)(=O)c1ccc(S(=O)(=O)N2CCC[C@@H](C(=O)NC3CC3)C2)cc1`: the IC50 with MIA PaCa-2 [1] is 4.6 µM; with MIA PaCa-2 [2], 1.1 µM; in the assay with MIA PaCa-2 [3], > 10 µM.

Turning to `CCOC(=O)C1CCN(S(=O)(=O)c2ccc(S(=O)(=O)N(CC)CC)cc2)CC1`, the IC50 worked out at 27.2 µM with MIA PaCa-2 [1] and 23.1 µM in the assay on BXPC-3.

Regarding `CCCN(CC)S(=O)(=O)c1ccc(S(=O)(=O)N2CCC[C@@H](C(=O)OCC)C2)cc1`, the IC50 in the assay with MIA PaCa-2 [1] and in the assay on BXPC-3 was 0.3 µM in each case.
